Experimental data taken from patent publication US6699463B2, “Photostable cationic organic sunscreen compounds with antioxidant properties and compositions obtained therefrom” (EM Industries, priority 2002, dated 2004).
Values after ≈ are worked out from the molar mass of the structure shown.

Key:
[1] = Chelating property: free coordination sites in Cu2+-antioxidant complex, UV spectrophotometric azide method; assay type: physicochemical
Description: (§1) Iron-catalyzed formation of a hydroxyl radical from a superoxide anion radical and hydrogen peroxide requires the availability of at least one iron coordination site that is either empty or occupied by a readily dissociable ligand, such as water. […] Martell et al, 1957). The results are recorded in Tables 1 and 2. [table]

[2] = DPPH test method (percent reducing activity, antioxidant activity); assay type: biochemical; details: for IC 50%: DPPH reducing activity; for Reductive activity at 30 μg/ml: DPPH, absorbance at 517 nm after 20 minutes
Description: A DPPH concentrate (2.5×) of 25 mg of 1,1-Diphenyl-2-Picyrl-Hydrazyl ACS#1898-66-4 (Sigma #D-9132, lot 99H3601) dissolved in 250 mL ethanol (USP), is prepared fresh on the measurement date. A DPPH working solution is then prepared by diluting 100 mL of this concentrate to a final volume of 250 mL (100 μM/mL). A blank 13×100 mm borosilicate glass screw top tube of ethanol (USP) is used to zero the spectrometer (Milton Roy, Spectronic 20+) at 517 nm and a control tube of DPPH working solution is measured under identical conditions, and taken as 0% activity. Aliquots of the 0.25% & 0.5% (RT & 45° C.) test solution are added to tubes followed by the rapid addition of 4 mL DPPH working solution then rapidly capped and mixed. After 20 minutes, the absorbance of each sample is read at 517 nm.
The percent reducing activity (%RA) is calculated using the following equation: [formula]
Where A(0) is the absorbance value of the DPPH working solution at 517 nm zeroed against an ethanol blank and A(20) is the absorbance at 517 nm, 20 minutes after combining the antioxidant with the DPPH working solution.
The concentration of antioxidant (mg/ml) in the final assay mixture is calculated based on the dilution of respective aliquots of each compound in the final assay volume and %RA tabulated and plotted as percent activity at each concentration in the dilution series.

[3] = UV absorption (λmax, εmax); assay type: physicochemical; details: for λmax: Example 3 in EtOH:water-70%:30%; for εmax: at λmax
Description: The mass was degassed for one hour at 90-95 deg. C. under vacuum. The yield obtained is about 85%. […] A 50% solution in water was prepared for ease of handling.
This material was prepared by following the procedure described in Example 3, except syringaldehyde was replaced with vanillin as a starting material. The product has a λmax at 334 nm (ε max 18050 cm^−1 mol^−1). A 50% solution in water was prepared for ease of handling.

[4] = Comparative photostability of thin films under UV A and UV B irradiation; assay type: physicochemical; details: thin film, UV A (2 MED/h) and UV B (1 MED/h), 8 h, FIGS. 1 and 2
Description: The photostability of compounds of the present invention as well as existing commercial cationic sunscreens is tested according to the procedure described below:
Photostability: Comparative Photostability of Example 3, Incroquat® 283 and Escalol® HP610
Three products [Example 3 (1%), Incroquat 283 (1%) and HP610 (0.1%)] were tested for their photostability by dissolving separately in water or ethanol-water solution containing 0.1% Poly(vinylpyrrolidone-vinyl acetate) copolymer (PVP-VA S630 from ISP). Air drying on a glass plate for one hour gave a thin film, which were irradiated under UV A (2 MED/h) and UV B (1 MED/h) light separately over an 8 h period in a Q-UV Accelerated Weathering Tester. Photodegradation was calculated from the decrease in the maximum absorption of the respective products. The results are illustrated in FIGS. 1 and 2.

[5] = Chelating property: free coordination sites in Fe3+-antioxidant complex, UV spectrophotometric azide method; assay type: physicochemical
Description: as §1

[6] = Solubility in water / aqueous-ethanolic solution; assay type: physicochemical; details: for Solubility in water: water / aqueous solution

| Compound | IC 50% [2] [µg/mL] | λmax [3] [nm] | εmax [3] | Photostability relative to commercial cationic sunscreens [4] | Solubility in water [6] | maximal concentration in aqueous-ethanolic solution ([6]; aqueous-ethanolic solution (30:70%)) [%] | Copper chelation / water coordination of the complex [1] | Reductive activity at 30 μg/ml [2] [%] | Iron chelation / water coordination of the complex [5] |
| --- | --- | --- | --- | --- | --- | --- | --- | --- | --- |
| Bis-N-[3(N,N-dimethylamino)propyl]-3,5-dimethoxy-4-hydroxybenzylidene Malonamide Bis Ethylsulfate [Example 3] | 118 | 323 | 10,500 cm^−1 mol^−1 | much higher photostability | highly soluble in water | – | absence of any water coordination | 22 | absence of any water coordination |
| COc1cc(/C=C(/C(C)=O)C(=O)NCCCN(C)C)cc(OC)c1O [Example 1, N-(3-Dimethylaminopropyl)-alpha-acyl-3,5-dimethoxy-4-hydroxy Cinnamide] | 79 (≈ 225 µM) | – | – | – | – | – | – | 23 | – |

Second part, led by results:

| IC 50% [2] [µg/mL] | λmax [3] [nm] | εmax [3] | Photostability relative to commercial cationic sunscreens [4] | Solubility in water [6] | maximal concentration in aqueous-ethanolic solution ([6]; aqueous-ethanolic solution (30:70%)) [%] | Compound | Copper chelation / water coordination of the complex [1] | Reductive activity at 30 μg/ml [2] [%] | Iron chelation / water coordination of the complex [5] |
| --- | --- | --- | --- | --- | --- | --- | --- | --- | --- |
| 129 | – | – | – | – | – | CCCCCCCCCCCC[N+](C)(C)CCCNC(=O)C(C#N)=Cc1cc(OC)c(O)c(OC)c1.CS(=O)(=O)[O-] [Example 2, N-(3-Dimethyl-3-dodecylaminopropyl)-alpha-cyano-3,5-dimethoxy-4-hydroxy Cinnamide Methane Sulphonate] | – | 28 | – |
| 188 | 334 | 18050 cm⁻¹ mol⁻¹ | – | – | – | Bis-N-[3(N,N-dimethylamino)propyl]-3-methoxy-4-hydroxybenzylidene Malonamide Bis Ethylsulfate [Example 4] | – | 8 | – |
| – | – | – | – | very poor solubility | 0.25 | CCCCCCCCCCCC[N+](C)(C)CCCNC(=O)c1ccc(N(C)C)cc1.Cc1ccc(S(=O)(=O)[O-])cc1 [Escalol® HP 610] | do not have iron-or copper-chelating properties | – | do not have iron-or copper-chelating properties |
